Measured values from US5618726A, “Biodegradable azo dyes” (priority 1994, dated 1997).
Like-named read-outs stand apart in the source and are kept apart here.

Key:
S. diastaticus A12 = assay type: cell-based; conditions: streptomyces diastaticus a12 culture, 336 h
From the text: (§1) Microbiol., 1984, 130:2905-2913.
(§2) Replicate sterile controls also were run in each experiment.

S. rochei A10 = assay type: cell-based; conditions: streptomyces rochei a10 culture, 336 h
From the text: as §1, §2

S. rochei A14 = assay type: cell-based; conditions: streptomyces rochei a14 culture, 336 h
From the text: as §1, §2

S. badius 252 = assay type: cell-based; conditions: streptomyces badius 252 culture, 336 h
From the text: as §1, §2

S. diastaticus A13 = assay type: cell-based; conditions: streptomyces diastaticus a13 culture, 336 h
From the text: as §1, §2

S. chromofuscus A11 = conditions: streptomyces chromofuscus a11 culture, 336 h
Description: as §1, §2
The Streptomyces were grown on the same media and under the same conditions as previously described. […] Thus, the spectrophotometric assays for substrates 1-12 were carried out at their specific isobastic points. Degradation was calculated as percent of substrates removed from culture broth, considering the evaporation factor (around 10%).

S. viridosporus T7A [1] = conditions: streptomyces viridosporus t7a culture, 336 h
Description: (§5) Each Streptomyces species was grown in a cotton-plugged 250 ml flask containing 25 ml of the following medium: 0.2M Tris buffer (pH 7.6), 100 ml; vitamin-free Casamino acids (Difco), 1.0 g; thiamine, 100 μg; biotin, 100 μg; D-glucose, 2 g; deionized water, 900 ml.
(§6) The dyes were filter-sterilized and added at 0.005% (w/v) to the autoclaved basal medium. Alternatively, azo dye stock solutions were sterilized by filtration (pore size 0.2 μm) and added to autoclaved basal medium at concentrations of 50 or 100 ppm. Three replicates of every culture were incubated, and each strain was grown in media supplemented individually with every substrate. Replicate sterile controls also were run in each experiment. […] Three replicates for each strain growth were incubated in only the basal medium as well.
(§7) A one ml sample of culture medium was centrifuged and then diluted 2.5-5.0 fold (actinomycete culture) or 5- to 10-fold (fungal culture) with distilled water. Alternatively, 1.0 ml of fungal supernatant was centrifuged and diluted 5-fold with 10 mM sodium 2,2-dimethylsuccinate buffer (DMS) of pH 4.5. […] To be certain that changes in substrate spectra were not due to pH variations, the effects of pH on the visible absorption of each compound were also assayed within physiological pH range in the culture media. While the spectra of sulfanilic acid (Max abs at 250 nm), vanillic acid (Max abs at 252 nm and 286 nm) and acid yellow 9 (Max abs at 336 nm) were unaffected by pH over the tested pH range, the spectra of several novel azo dyes were changed as evidenced by shifts of their Absmax. Thus, the spectrophotometric assays for the dyes were typically carried out at their isobestic points. […] Spectrophotometric measurements were carried out at the absorbance maxima for azo dyes 16, 17, 18, 19, 31, and 32 (See Table 1 below). […] The compounds were quantified by first developing standard curves of absorbance versus concentrations (0-50 μg) and then comparing measured absorbance values to the standard curves.

[2] = tested on: Phanerochaete chrysosporium; assay: Substrate removal / decolorization by P. chrysosporium culture; assay type: cell-based; conditions: for % Decolorization, P. chrysosporium: 14 days
Description: Environ. Microbiol., 1981, 42:290-296), with the addition of 75 mg adenine (6-aminopurine) and 27 mg L-phenylalanine-per-liter. This addition accelerated the growth of the fungus without inhibiting ligninase activity. […] […] Cultures were incubated at 37° C. for 7 to 15 days with shaking (250 rpm). Solid agar media were also employed.

S. chromofuscus A20 = conditions: streptomyces chromofuscus a20 culture, 336 h
Description: as §5
The dyes were filter-sterilized and added at 0.005% (w/v) to the autoclaved basal medium. Alternatively, azo dye stock solutions were sterilized by filtration (pore size 0.2 μm) and added to autoclaved basal medium at concentrations of 50 or 100 ppm. Three replicates of every culture were incubated, and each strain was grown in media supplemented individually with every substrate. Replicate sterile controls also were run in each experiment. Cultures were incubated at 37° C. for 14 days with shaking (200-250 rpm). Three replicates for each strain growth were incubated in only the basal medium as well.
A one ml sample of culture medium was centrifuged and then diluted 2.5-5.0 fold (actinomycete culture) or 5- to 10-fold (fungal culture) with distilled water. Alternatively, 1.0 ml of fungal supernatant was centrifuged and diluted 5-fold with 10 mM sodium 2,2-dimethylsuccinate buffer (DMS) of pH 4.5. Azo dye substrate present was then measured spectrophotometrically with a Hewlett-Packard 8452 diode array spectrophotometer operated by a PC Vectra computer equipped with HP's MS™-DOS/UV-VIS software. To be certain that changes in substrate spectra were not due to pH variations, the effects of pH on the visible absorption of each compound were also assayed within physiological pH range in the culture media. […] Thus, the spectrophotometric assays for the dyes were typically carried out at their isobestic points. For instance, the spectrophotometric assays were carried out at 450 nm for azo dye 1 and 400 nm for azo dye 2. […] The compounds were quantified by first developing standard curves of absorbance versus concentrations (0-50 μg) and then comparing measured absorbance values to the standard curves.

[3] = tested on: Streptomyces chromofuscus; assay: Mineralization of 14C-labeled dyes by shaken cultures; assay type: cell-based; conditions: 21 days' growth, 50 mg/liter
Description: (§3) Agitated cultures containing 100,000 to 150,000 dpm of azo dye at a concentration of 200 mg/liter for P. chrysosporium and 50 mg/liter for S. chromofuscus were incubated at 37° C. for 20 days with shaking at 200 rpm. For each mineralization experiment six replicates-per-culture were run for P. chrysosporium and three replicates-per-culture for S. chromofuscus. Each culture flask contained a CO2 trap consisting of a small glass cup connected to the bottom of the rubber stopper. The cup contained 1 ml of 1N NaOH. Samples were taken every 2 days, and after each sampling cultures were flushed with 100% oxygen for 30 s. At the sampling time, the stopper was removed and the NaOH containing trapped CO2 was transferred to a 20-ml scintillation vial, and the cup was then rinsed twice with 1 ml of water. Two ml of rinse water were also transferred to the vial. Finally, 10 ml of Ecolite scintillation cocktail (ICN Biochemicals Inc., Irvine, Calif.) were added to each vial. Vials, after mixing, were stored in the dark for 24 h. The cpm of trapped radioactivity was then determined in a Packard Tri-Carb liquid scintillation analyzer, Model 1500, using the ^14 C quench standards and SIS numbers.
(§4) The removal of radioactivity from the media was determined by measuring the amount of ^14 C label in 0.1 ml of the medium at time 0 and 21 days for each culture. Uninoculated cultures were used as evaporation controls. […] At the end of each mineralization experiment, culture broths were acidified with 5 ml of 1M H3 PO4, fresh 1N NaOH was added to the trap, and the cultures were shaken overnight. No additional releases of ^14 CO2 were observed. The radioactivity assimilated by the cells was measured by solubilizing biomass harvested from each 21-day-old culture in an equal volume of hyamine hydroxide solution. Before solubilization, cells were washed three times with 50 ml of distilled water to remove adsorbed dyes. Ecolite 10 ml was added to the mixture, which was vortexed vigorously. To increase counting efficiency, the solution of biomass-hyamine-scintillation cocktail was further diluted 10 to 20 times with fresh Ecolite before counting.

Mn(II)-peroxidase [4] = assay: Oxidation of dyes by P. chrysosporium Mn(II)-peroxidase; assay type: biochemical, Phanerochaete chrysosporium; conditions: for Oxidation by manganese peroxidase: 15-minute incubation period
ligninase = assay: Oxidation of dyes by P. chrysosporium ligninase (crude preparation); assay type: biochemical, Phanerochaete chrysosporium; conditions: for Oxidation / decolorization by ligninase: pH3, 0.2 mM hydrogen peroxide, 15-minute incubation
Method in brief: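 Crude P. chrysosporium ligninase oxidation of dyes, assayed by a previously reported method; conditions as for acid yellow 9, readings every 30 s for up to 15 minutes.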

P. chrysosporium = assay: Mineralization of 14C-labeled dyes by shaken cultures; assay type: cell-based, Phanerochaete chrysosporium; conditions: for Percentage of radioactivity recovered in CO2, P. chrysosporium / Percentage of radioactivity recovered in biomass (cells), P. chrysosporium / Percentage of radioactivity removed from the medium, P. chrysosporium: 21 days' growth, 200 mg/liter
Description: as §3
Either a charcoal-containing polyurethane sponge (Bio-Rad Laboratories, Richmond, Calif.) or 2-methoxyethanol was used to trap volatile organic compounds released during mineralization experiments. The sponge (1 cm^3) replaced the 1N NaOH solution in the small glass cap attached to the rubber stopper; other conditions were as before for the ^14 CO2 experiments. For scintillation counting, the charcoal sponges were dissolved in 1 ml of hyamine hydroxide contained in scintillation vials (1M solution in methanol; NEN Research Products, Boston, Mass.) held at 55° C. for 2 h. Ten ml of Ecolite scintillation cocktail were then added and the cpm was measured.
In the second procedure, cultures with CO2 traps were flushed with oxygen for 10 min, and the organic volatiles present were trapped in 10 ml of 2-methoxyethanol mixed with 10 ml Ecolite.
as §4

Streptomyces spp. = assay: Decolorization of naphthol azo dyes by Streptomyces spp.; assay type: cell-based
From the text: as §1, §2

S. viridosporus T7A [5] = assay: Substrate removal by Streptomyces culture; conditions: growth period 14 days
Description: as §5, §6, §7

S. rochei A4 = assay: Substrate removal by Streptomyces culture; assay type: cell-based, Streptomyces rochei; conditions: growth period 14 days
From the text: as §2

[6] = molecular target: T1, horseradish peroxidase type II (Armoracia rusticana, UniProt P00433); assay: Oxidation of azo dyes by horseradish peroxidase preparation; assay type: biochemical; conditions: pH 8, 37° C., H2O2
T1 sequence (P00433 31-338): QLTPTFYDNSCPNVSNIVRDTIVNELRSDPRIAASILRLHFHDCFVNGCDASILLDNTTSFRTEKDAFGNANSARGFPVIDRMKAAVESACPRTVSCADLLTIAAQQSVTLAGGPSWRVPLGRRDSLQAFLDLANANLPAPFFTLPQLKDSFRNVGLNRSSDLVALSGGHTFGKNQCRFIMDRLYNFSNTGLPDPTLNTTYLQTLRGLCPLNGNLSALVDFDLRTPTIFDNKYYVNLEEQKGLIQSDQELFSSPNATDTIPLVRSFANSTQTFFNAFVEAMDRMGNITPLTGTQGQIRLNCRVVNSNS
Description: The reaction was started with the addition of 100 μl of 50 mM H2 O2 and was followed for 1 min at 37° C. Controls were run with no addition of H2 O2 or with the addition of the hemeperoxidase inhibitor KCN (final concentration 25 μM).

[7] = tested on: S. chromofuscus A11 extracellular peroxidase; assay: Oxidation of azo dyes by S. chromofuscus A11 crude enzyme preparation; assay type: biochemical, Streptomyces chromofuscus A11; conditions: pH 8, 37° C., H2O2
Method in brief: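 Enzyme from 48 h S. chromofuscus A11 culture supernatant, concentrated, ammonium sulfate-precipitated, dialyzed in 20 mM HEPES pH 8; yellow Sephadex G-25 fraction used. Reaction started with 100 μl 50 mM H2O2, followed 1 min at 37° C; controls without H2O2 or with 25 μM KCN.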

Mn(II)-peroxidase [8] = assay: Oxidation of dyes by P. chrysosporium Mn(II)-peroxidase; assay type: biochemical, Phanerochaete chrysosporium; conditions: crude enzyme, conditions specific for Mn(II)-peroxidase
[9] = p. chrysosporium culture, 168 h

## COc1cc(N=Nc2ccc(N=Nc3ccc(S(=O)(=O)O)cc3)cc2S(=O)(=O)O)ccc1O [Azo dye 1, 4-(3-methoxy-4-hydroxyphenylazo)-azobenzene-3,4'-disulfonic acid]
S. diastaticus A12
  Percent substrate removed, S. diastaticus A12: 27%
S. rochei A10
  Percent substrate removed, S. rochei A10: 51%
S. rochei A14
  Percent substrate removed, S. rochei A14: 43%
S. badius 252
  Percent substrate removed, S. badius 252: 9%
S. diastaticus A13
  Percent substrate removed, S. diastaticus A13: 15%
S. chromofuscus A11
  Percent substrate removed, S. chromofuscus A11: 56%
S. viridosporus T7A [1]
  Percent substrate removed, S. viridosporus T7A: 1%
[2]; growth period 7 days
  Percent substrate removed, P. chrysosporium: 93%
S. chromofuscus A20
  Percent substrate removed, S. chromofuscus A20: 1%

## COc1cc(N=Nc2ccc(S(=O)(=O)O)cc2)ccc1O [Azo dye 2, 3-methoxy-4-hydroxy-azobenzene-4'-sulfonic acid]
S. diastaticus A12
  Percent substrate removed, S. diastaticus A12: 30%
S. rochei A10
  Percent substrate removed, S. rochei A10: 74%
S. rochei A14
  Percent substrate removed, S. rochei A14: 72%
S. badius 252
  Percent substrate removed, S. badius 252: 18%
S. diastaticus A13
  Percent substrate removed, S. diastaticus A13: 21%
S. chromofuscus A11
  Percent substrate removed, S. chromofuscus A11: 89%
S. viridosporus T7A [1]
  Percent substrate removed, S. viridosporus T7A: 9%
[2]; growth period 7 days
  Percent substrate removed, P. chrysosporium: 94%
S. chromofuscus A20
  Percent substrate removed, S. chromofuscus A20: 11%

## Nc1ccc(N=Nc2ccc(S(=O)(=O)O)cc2)cc1S(=O)(=O)O [Azo dye 18, 4-amino-1,1'-azobenzene-3,4'-disulfonic acid]
[3]
  Percentage of radioactivity recovered in CO2, Streptomyces chromofuscus: 0.0%
  Percentage of radioactivity recovered in biomass (cells), Streptomyces chromofuscus: 0.0%
  Percentage of radioactivity removed from the medium, Streptomyces chromofuscus: 0.0%
Mn(II)-peroxidase [4]
  Oxidation by manganese peroxidase: not detected
ligninase; out of 10 micrograms, 15 minutes, pH3, 0.6 units of enzyme
  Amount of dye decolorized by ligninase: about 3 micrograms
P. chrysosporium
  Percentage of radioactivity recovered in CO2, P. chrysosporium: 26.9%
  Percentage of radioactivity recovered in biomass (cells), P. chrysosporium: 2.3%
  Percentage of radioactivity removed from the medium, P. chrysosporium: 33.0%
[2]; [9]
  Percent substrate removed, P. chrysosporium: 79%

## O=S(=O)(O)c1ccc2c(N=Nc3ccccc3)c(O)ccc2c1 [Azo dye 19, 1-phenylazo-2-hydroxynaphthalene-6-sulfonic acid]
Streptomyces spp.
  Decolorization by Streptomyces spp.: not

## O=S(=O)(O)c1ccc(N=Nc2c(O)ccc3ccccc23)cc1 [Azo dye 31, 4-(2-hydroxy-1-naphthylazo)benzenesulfonic acid]
Streptomyces spp.
  Decolorization by Streptomyces spp.: not

## Nc1ccc(S(=O)(=O)O)cc1 [Sulfanilic acid, 4-Amino-[U-^14 C]benzenesulfonic acid]
[3]
  Percentage of radioactivity recovered in CO2, Streptomyces chromofuscus: 0.0%
  Percentage of radioactivity recovered in biomass (cells), Streptomyces chromofuscus: 0.0%
  Percentage of radioactivity removed from the medium, Streptomyces chromofuscus: 0.0%
Mn(II)-peroxidase [4]
  Oxidation by manganese peroxidase: not detected
ligninase
  Oxidation / decolorization by ligninase: transformed slowly
P. chrysosporium
  Percentage of radioactivity recovered in biomass (cells), P. chrysosporium: 1.3%
  Percentage of radioactivity removed from the medium, P. chrysosporium: 25.0%
P. chrysosporium; listed as Sulfanilic Acid
  Percentage of radioactivity recovered in CO2, P. chrysosporium: 17.2%
P. chrysosporium; listed as sulfanilic acid
  Percentage of radioactivity recovered in CO2, P. chrysosporium: 17%
P. chrysosporium; P. chrysosporium
  Start of mineralization in the fungal culture: tenth day
[2]; [9]
  Percent substrate removed, P. chrysosporium: 68%

## COc1cc(C(=O)O)ccc1O [Vanillic acid, 4-hydroxy-3-methoxybenzoic acid, reference compound]
S. viridosporus T7A [5]
  Percent substrate removed, S. viridosporus T7A: 3%
S. diastaticus A12
  Percent substrate removed, S. diastaticus A12: 58%
S. rochei A10
  Percent substrate removed, S. rochei A10: 91%
S. rochei A14
  Percent substrate removed, S. rochei A14: 72%
S. badius 252
  Percent substrate removed, S. badius 252: 7%
S. diastaticus A13
  Percent substrate removed, S. diastaticus A13: 34%
S. rochei A4
  Percent substrate removed, S. rochei A4: 100%
S. chromofuscus A11
  Percent substrate removed, S. chromofuscus A11: 100%
S. chromofuscus A20
  Percent substrate removed, S. chromofuscus A20: 5%

## COc1cc(N=Nc2ccc(N=Nc3ccc(S(=O)(=O)O)cc3)cc2S(=O)(=O)O)ccc1O [compound 1]
[6]
  Oxidation rate of azo dyes, Horseradish peroxidase: 8.24 μmoles per minute per ml
Mn(II)-peroxidase [4]; one hour incubation
  Degradation by manganese peroxidase (HPLC, words): almost completely degraded
ligninase; crude enzyme, conditions specific for ligninase
  Oxidation rate of azo dyes, P. chrysosporium Ligninase: 0.44 μmoles per minute per ml
ligninase
  Oxidation / decolorization by ligninase: not detected
[7]
  Oxidation rate of azo dyes, S. chromofuscus peroxidase: 1.78 μmoles per minute per ml
[2]; growth period of seven days, starting dye 150-200 ppm (FIG. 3), 10080 min
  Degradation by Phanerochaete fungus: 90%
[2]; initial concn 150 ppm
  % Decolorization, P. chrysosporium: 99%
[2]; initial concn 300 ppm
  % Decolorization, P. chrysosporium: 62%
Mn(II)-peroxidase [8]
  Oxidation rate of azo dyes, P. chrysosporium Mn-peroxidase: 3.06 μmoles per minute per ml
